Structures can show the parent of a compound that is named as a salt. Where two headings read alike, the source gives them in different places.
What was measured:
Type in all cases: biochemical
MAO-B = molecular target: T1, MAO-B (Rattus norvegicus, UniProt P19643); experiment: biochemical
T1 sequence (P19643 1-520): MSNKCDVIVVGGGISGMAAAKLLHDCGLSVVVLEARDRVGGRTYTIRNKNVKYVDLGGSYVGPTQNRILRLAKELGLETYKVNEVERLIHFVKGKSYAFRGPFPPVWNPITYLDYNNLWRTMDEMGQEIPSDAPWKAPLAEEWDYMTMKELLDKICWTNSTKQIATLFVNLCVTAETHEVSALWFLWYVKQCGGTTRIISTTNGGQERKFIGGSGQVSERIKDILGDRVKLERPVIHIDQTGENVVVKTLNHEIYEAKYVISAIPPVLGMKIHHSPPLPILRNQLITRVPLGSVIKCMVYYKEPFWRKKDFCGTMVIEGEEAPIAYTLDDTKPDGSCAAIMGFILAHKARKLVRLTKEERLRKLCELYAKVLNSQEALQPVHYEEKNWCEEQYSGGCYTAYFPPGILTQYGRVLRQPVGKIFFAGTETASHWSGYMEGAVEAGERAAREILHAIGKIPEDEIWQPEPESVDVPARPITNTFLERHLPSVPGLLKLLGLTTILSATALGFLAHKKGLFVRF
Protocol: (§1) The aliphatic propargylamine inhibitors (from 1×10^-10 M to 1×10^-4 M) were preincubated with the MAO for 20 min. at ambient room temperature and then the residual enzyme activities were determined by addition of the substrates, followed by further incubation at 37° C. for 30 min. The enzymatic reactions were terminated by the addition of citric acid and the aldehyde products were extracted with toluene: ethyl acetate (1:1, v/v) and the radio-activities assessed in a scintillation counter.

MAO-A = molecular target: T2, MAO-A (Rattus norvegicus, UniProt P21396); experiment: biochemical; settings: substrate 5-HT (5 × 10^-4 M); rat liver MAO, in vitro; average of at least 3 independent experiments
T2 sequence (P21396 1-526): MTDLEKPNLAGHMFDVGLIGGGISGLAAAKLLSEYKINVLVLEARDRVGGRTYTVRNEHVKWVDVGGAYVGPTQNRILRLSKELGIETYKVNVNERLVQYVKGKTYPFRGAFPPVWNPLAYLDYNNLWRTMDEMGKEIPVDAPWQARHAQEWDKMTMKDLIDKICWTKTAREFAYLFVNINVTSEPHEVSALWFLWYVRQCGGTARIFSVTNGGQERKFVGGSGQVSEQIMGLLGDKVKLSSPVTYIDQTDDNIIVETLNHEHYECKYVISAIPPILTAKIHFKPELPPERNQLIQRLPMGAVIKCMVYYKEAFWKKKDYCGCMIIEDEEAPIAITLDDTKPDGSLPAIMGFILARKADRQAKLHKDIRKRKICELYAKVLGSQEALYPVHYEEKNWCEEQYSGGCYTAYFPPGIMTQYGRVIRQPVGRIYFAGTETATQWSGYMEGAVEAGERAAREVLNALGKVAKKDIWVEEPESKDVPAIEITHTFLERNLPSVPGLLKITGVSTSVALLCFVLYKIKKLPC
Protocol: as §1

monoamine oxidase = experiment: Inhibition of rat liver monoamine oxidase deamination of dopamine (DA, mixed-type MAO A and B substrate) in vitro; settings: substrate DA (5 × 10^-4 M), average of at least 3 independent experiments
Protocol: as §1

[1] = substrate PE (1.9 × 10^-5 M), rat liver MAO, in vitro, average of at least 3 independent experiments
[2] = […], rat liver MAO, in vitro, average of at least 3 independent experiments, read-out: PE IC50

`C#CCN(CC)C(C)CC` (stereo not shown) [Example 2-BuEP, N-(2-Butyl)-N-ethylpropargylamine hydrochloric salt] was tested, and the “PE IC50” value (MAO-B; [1]) was “inactive” and the “5-HT IC50” value (MAO-A) was “inactive”.

In the case of `C#CCNC(C)CC.Cl` (stereo not shown) [Example 2-BuPP, N-(2-Butyl)propargylamine hydrochloride salt], the “PE IC50” value (MAO-B) is reported as “inactive” and the “5-HT IC50” value (MAO-A) is reported as “inactive”.

With `C#CCCN(C)C(C)CC.O=C(O)C(=O)O` (stereo not shown) [Example 3-BuBuM, N-(3-Butynyl)-N-(2-butyl)methylamine oxalate salt] the “PE IC50” value (MAO-B) was “inactive” and the “5-HT IC50” value (MAO-A) was “inactive”.

With `C#CCN(C)CCCCCCO.Cl` [Example 6-OH-Hx1MP, N-(6-Hydroxy-1-hexyl)-N-methylpropargylamine-HCl] the IC50 (MAO-B; [1]) was 100 µM and the “5-HT IC50” value (MAO-A) was “inactive”.

For `C#CCN(C)CCCCCl.Cl` [Cl-1-BuMP, N-(4-Chloro-1-butyl)-N-methylpropargylamine-HCl], the IC50 (MAO-B; [2]) was 10 µM, the “Ratio MAO-A/MAO-B” value (MAO-B; ratio of IC50 values, in vitro) was over 10 and the IC50 (MAO-A) was over 100 µM.

For `C#CCN(C)CCCC(=O)O` [Example 3-CP-MP, N-(3-Carboxy-1-propyl)-N-methylproparglamine oxalate], the “PE IC50” value (MAO-B; [1]) was “inactive”, the “5-HT IC50” value (MAO-A) was “inactive” and the “DA IC50” value (monoamine oxidase) was “inactive”.

In the case of `C#CCN(C)C(C)C.Cl` [Example 2-PrMP, N-Methyl-N-(2-propyl)propargylamine hydrochloride], the IC50 (MAO-B; [2]) is reported as 20 µM, the “5-HT IC50” value (MAO-A) is reported as “no effect” and the IC50 (monoamine oxidase) is reported as 30 µM.

For `C#CCN(C)CCCCCC(=O)OCC.O=C(O)C(=O)O` [Example 5-CP1MP, N-(5-carbethoxy-1-pentyl)-N-methylpropargylamine oxalate], the “PE IC50” value (MAO-B) was “inactive”, the “5-HT IC50” value (MAO-A) was “inactive” and the “DA IC50” value (monoamine oxidase) was “inactive”.

In the case of `C#CCN(CC)CCCC.O=C(O)C(=O)O` [Example 1-BuEP, N-(1-Butyl)-N-ethylpropargylamine oxalate salt], the “PE IC50” value (MAO-B) is reported as “inactive” and the “5-HT IC50” value (MAO-A) is reported as “inactive”.

`C#CCN(C)C(C)CCCC(=O)OCC.Cl` (stereo not shown) [Example 5-CP2MP, N-(5-Carbethoxy-2-pentyl)-N-methylpropargylamine-HCl] was tested, and the “PE IC50” value (MAO-B) was “inactive”, the “5-HT IC50” value (MAO-A) was “inactive” and the “DA IC50” value (monoamine oxidase) was “inactive”.

From US5508311A, “Aliphatic propargylamines as selective MAO-B inhibitors and as neuroprotective agents” (University of Saskatchewan, priority 1993, dated 1996)
